Legend:
[1] = test system: AQP2; assay: RT-PCR analysis of AQP2 expression in ES cells; type: cell-based; details: immortalized human ES epithelial cells
Source text: The inner ear can function properly only if the chemical equilibrium and volume of inner ear fluids are maintained. The disruption of inner ear homeostasis results in many inner ear disorders such as Meniere's disease. The endolymphatic sac (ES) is believed to be involved in homeostasis of endolymph such as ion and fluid regulation. Aquaporins (AQPs) function like a molecular water valve, allowing water to move along a specific direction. AQP1, 2, 3, 4, and 6 are all found in the ES and may have an important role in endolymph fluid homeostasis. […] Taken together, our findings indicate that ES epithelial cells are invovled in homeostasis of endolymph through regulation of AQP2 and AQP3. We believe that our ES cell line will provide an in vitro model enabling us to better understand the molecular pathogeneis of Meniere's disease.

[2] = test system: ES cells; assay: Water permeability of ES cells (fluorescence-quenching assay); type: cell-based; details: immortalized human ES epithelial cells
Protocol: For water permeability measurement, an ES cell line is plated in 96-well clear bottom of black-walled microplates (Costar) at a density of 20000 cells per well in F-12 Ham's medium supplemented with 10% FBS and 0.5 mg/mL G418. After incubation at 37° C. in an atmosphere containing 5% CO2 with 90% humidity for 18 h, the cells in 96-well plates are washed twice in PBS buffer (200 μL/wash), leaving 100 μL PBS after the last wash. Measurement is performed on a FLUOstar Optima plate reader (BMG Technology) equipped with syringe pumps and excitation and emission filters. Cells in each well of the plate are assayed individually for osmotically driven (e.g., aquaporin-mediated), water influx across the plasma membrane that dilutes the cytoplasmic Cl^− by recording fluorescence increase continuously (0.2 s per point) for 2 s (baseline) and then for 21 s (water transport into the cells) after rapid injection (<1 s) of 100 μL distilled water. Water permeability is expressed as half time (t1/2) from water injection to the point when the cytoplasmic fluorescence reaches the maximum. A smaller t1/2 represents a higher water permeability.
The inner ear can function properly only if the chemical equilibrium and volume of inner ear fluids are maintained. The disruption of inner ear homeostasis results in many inner ear disorders such as Meniere's disease. […]

[3] = test system: HESC-1 cells; assay: Secretion of viscous substance by HESC-1 cells; type: cell-based, human
Source text: For example, viscosity of the substance derived from the cells can be measured using an Ubbelohde viscometer (VWR) after collection of the supernatant. Osmolality of the substance can be measured using a freezing point osmometer (Precision Systems, Natick, MA). To determine the factors influencing secretion of osmotically active and viscous substances, the cells can be cultured using a serum-free medium with deficiency of a specific factor such as retinoic acid, hydrocortisone and triiodothronine.
(§1) Regulatory mechanisms involved in secretion and biological functions of these molecules can be determined. The HESC-1 cells provides a basis for an in vitro model for the studies of secretory function of the ES.

[4] = test system: mucin core proteins and hyaluronic acid synthases; assay: qRT-PCR analysis of mucin core proteins and hyaluronic acid synthases in HESC-1 cells; type: cell-based, human
Source text: We identified hyaluronic acid among the osmotically active substances derived from our ES cell line. Three isoforms of hyaluronic acid synthases (HASs) are identified in humans. For example, transcriptional regulation of each HAS can be determined using real-time quantitative RT-PCR analysis after extraction of total RNAs from the ES cell line. Protein levels of each HAS can be measured using immunobloting after extraction of total proteins from the ES cell line. To determine the factors regulating each HAS, the cells can be cultured using a serum-free medium with deficiency of a specific factor such as retinoic acid, hydrocortisone and triiodothronine.
as §1

Compound	AQP2 expression (RT-PCR) [1]	water permeability of ES cells upon exposure [2]	secretion of viscous substance [3]	expression of mucin core proteins and hyaluronic acid synthases (qRT-PCR) [4]
NC(=O)CC[C@@H]1NC(=O)[C@H](Cc2ccccc2)NC(=O)[C@H](Cc2ccc(O)cc2)NC(=O)[C@@H](N)CSSC[C@@H](C(=O)N2CCC[C@H]2C(=O)N[C@@H](CCCN=C(N)N)C(=O)NCC(N)=O)NC(=O)[C@H](CC(N)=O)NC1=O [vasopressin]	up-regulation	affected	–	–
EGF: human epidermal growth factor (EGF) (NSDSECPLSHDGYCLHDGVCMYIEALDKYACNCVVGYIGERCQYRDLKWWELR; UniProt P01133 971-1023, looked up)	–	–	secrete viscous substance	up-regulate

Reference: patent US20120122716A1, “CELL LINE DERIVED FROM THE EPITHELIAL LINING OF THE HUMAN ENDOLYMPHATIC SAC IN THE INNER EAR” (priority 2010, published 2012)
